Measured values as given in ChEMBL document CHEMBL5634096, “Design, synthesis and bioevaluation of PI3Kα-selective inhibitors as potential colorectal cancer drugs” (Eur J Med Chem, 2023).
The source made the active and inactive calls. The rule behind the calls is not given here.

Key:
[1] = tested on: MDA-MB-231; assay: Antiproliferative activity against human MDA-MB-231 cells assessed as reduction in cell viability incubated for 24 to 48 hrs by CCK-8 assay; assay type: functional, cell-based
[2] = Clearance in Sprague-Dawley rat at 5 mg/kg, iv measured upto 24 hrs by LC-MS analysis; assay type: ADME, organism-based; conditions: in vivo
[3] = target: Cytochrome P450 2D6 (Homo sapiens, UniProt P10635); assay: Inhibition of CYP2D6 in human liver microsomes using dextromethorphan as substrate pre-incubated for 30 mins followed by substrate addition and measured after 15 mins in presence of NADPH by LC/MS analysis; assay type: ADME, Microsome
[4] = Metabolic stability in Sprague-Dawley rat liver microsomes assessed as half life at 5 ug/ml incubated for 1 hr in presence of NADPH by LC-MS/MS analysis; assay type: ADME, Microsome; conditions: dose 5 µg/ml
[5] = tested on: HCT-116; assay: Antiproliferative activity against human HCT-116 cells assessed as inhibition of colony formation at 6 uM incubated for 48 hrs by crystal violet staining based assay; assay type: functional, cell-based
[6] = tested on: MCF7; assay: Antiproliferative activity against human MCF7 cells assessed as reduction in cell viability incubated for 24 to 48 hrs by CCK-8 assay; assay type: functional, cell-based
[7] = MRT (0 to infinity) in Sprague-Dawley rat at 5 mg/kg, iv measured upto 24 hrs by LC-MS analysis; assay type: ADME, organism-based; conditions: in vivo
[8] = tested on: HCT-116; assay: Antiproliferative activity against human HCT-116 cells assessed as reduction in cell viability incubated for 24 to 48 hrs by CCK-8 assay; assay type: functional, cell-based
[9] = Metabolic stability in Sprague-Dawley rat liver microsomes assessed as intrinsic clearance at 5 ug/ml incubated for 1 hr in presence of NADPH by LC-MS/MS analysis; assay type: ADME, Microsome; conditions: dose 5 µg/ml
[10] = Metabolic stability in artificial gastrointestinal fluid assessed as compound remaining measured upto 8 hrs by LC-MS/MS analysis; assay type: ADME
[11] = tested on: HCT-116; assay: Antiproliferative activity against human HCT-116 cells assessed as reduction in cell viability incubated for 48 hrs by CCK-8 assay; assay type: functional, cell-based; conditions: dose 20-80 µM
[12] = target: Phosphatidylinositol 4,5-bisphosphate 3-kinase catalytic subunit beta isoform (Homo sapiens, UniProt P42338); assay: Inhibition of PI3Kbeta (unknown origin) by ADP-Glo luminescent kinase assay
Phosphatidylinositol 4,5-bisphosphate 3-kinase catalytic subunit beta isoform, sequence (P42338 whole entry, canonical isoform): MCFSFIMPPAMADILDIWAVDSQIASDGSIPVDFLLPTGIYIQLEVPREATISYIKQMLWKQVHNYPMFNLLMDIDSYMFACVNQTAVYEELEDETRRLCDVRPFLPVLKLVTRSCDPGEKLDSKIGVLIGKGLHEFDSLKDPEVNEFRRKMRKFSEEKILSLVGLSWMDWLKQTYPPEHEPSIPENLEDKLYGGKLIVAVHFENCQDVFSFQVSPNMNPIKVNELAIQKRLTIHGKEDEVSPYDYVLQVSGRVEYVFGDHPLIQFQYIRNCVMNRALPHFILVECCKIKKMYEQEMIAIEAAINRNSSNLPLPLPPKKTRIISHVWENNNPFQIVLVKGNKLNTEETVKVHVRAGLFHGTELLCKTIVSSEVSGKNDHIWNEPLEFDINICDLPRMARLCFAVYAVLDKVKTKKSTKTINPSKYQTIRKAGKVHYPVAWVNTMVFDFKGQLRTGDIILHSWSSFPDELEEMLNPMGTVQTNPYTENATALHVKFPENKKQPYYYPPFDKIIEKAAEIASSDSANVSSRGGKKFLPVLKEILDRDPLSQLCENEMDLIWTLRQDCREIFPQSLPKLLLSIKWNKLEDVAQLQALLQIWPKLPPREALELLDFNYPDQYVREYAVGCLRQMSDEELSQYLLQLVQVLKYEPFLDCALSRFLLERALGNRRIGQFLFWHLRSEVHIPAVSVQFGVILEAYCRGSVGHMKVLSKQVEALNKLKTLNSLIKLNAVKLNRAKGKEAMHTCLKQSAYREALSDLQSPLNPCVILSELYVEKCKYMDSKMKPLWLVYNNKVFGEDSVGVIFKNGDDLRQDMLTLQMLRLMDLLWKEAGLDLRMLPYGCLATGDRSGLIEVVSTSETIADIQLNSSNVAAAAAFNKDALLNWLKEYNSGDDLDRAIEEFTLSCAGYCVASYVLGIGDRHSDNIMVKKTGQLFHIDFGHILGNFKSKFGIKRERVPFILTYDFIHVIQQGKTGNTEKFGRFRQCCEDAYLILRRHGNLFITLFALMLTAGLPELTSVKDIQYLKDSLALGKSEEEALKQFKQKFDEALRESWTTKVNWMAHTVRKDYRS

[13] = AUC (0 to t) in Sprague-Dawley rat at 5 mg/kg, iv measured upto 24 hrs by LC-MS analysis; assay type: ADME, organism-based; conditions: in vivo
[14] = target: Phosphatidylinositol 4,5-bisphosphate 3-kinase catalytic subunit gamma isoform (Homo sapiens, UniProt P48736); assay: Inhibition of PI3Kgamma (unknown origin) by ADP-Glo luminescent kinase assay
Phosphatidylinositol 4,5-bisphosphate 3-kinase catalytic subunit gamma isoform, sequence (P48736 whole entry, canonical isoform): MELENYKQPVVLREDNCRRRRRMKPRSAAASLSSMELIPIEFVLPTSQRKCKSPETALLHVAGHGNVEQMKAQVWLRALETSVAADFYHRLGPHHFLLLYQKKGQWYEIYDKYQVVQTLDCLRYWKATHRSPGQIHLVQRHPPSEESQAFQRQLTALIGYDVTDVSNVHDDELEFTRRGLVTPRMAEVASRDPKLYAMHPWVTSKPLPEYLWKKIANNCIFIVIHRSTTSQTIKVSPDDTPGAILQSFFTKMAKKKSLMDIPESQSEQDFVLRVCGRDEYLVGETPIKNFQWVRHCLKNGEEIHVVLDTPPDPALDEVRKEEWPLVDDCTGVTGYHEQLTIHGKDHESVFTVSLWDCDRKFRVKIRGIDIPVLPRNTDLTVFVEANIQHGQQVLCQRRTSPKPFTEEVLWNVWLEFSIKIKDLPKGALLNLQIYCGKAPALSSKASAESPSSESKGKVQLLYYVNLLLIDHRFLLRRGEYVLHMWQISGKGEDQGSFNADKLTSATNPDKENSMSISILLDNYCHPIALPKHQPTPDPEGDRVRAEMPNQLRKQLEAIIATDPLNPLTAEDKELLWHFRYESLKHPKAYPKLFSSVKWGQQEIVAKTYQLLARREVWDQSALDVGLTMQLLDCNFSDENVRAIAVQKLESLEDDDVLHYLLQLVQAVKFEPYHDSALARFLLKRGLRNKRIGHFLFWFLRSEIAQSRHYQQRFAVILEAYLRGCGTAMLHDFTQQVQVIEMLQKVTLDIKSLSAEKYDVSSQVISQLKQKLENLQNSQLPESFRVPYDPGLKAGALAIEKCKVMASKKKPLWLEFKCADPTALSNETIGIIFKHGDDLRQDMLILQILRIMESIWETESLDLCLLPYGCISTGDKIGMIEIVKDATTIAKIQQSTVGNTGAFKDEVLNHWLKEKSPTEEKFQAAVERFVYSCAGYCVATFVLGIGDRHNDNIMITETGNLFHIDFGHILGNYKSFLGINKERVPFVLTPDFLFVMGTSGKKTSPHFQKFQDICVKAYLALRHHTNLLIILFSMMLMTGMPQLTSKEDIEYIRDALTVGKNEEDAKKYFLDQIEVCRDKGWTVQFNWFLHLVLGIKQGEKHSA

[15] = AUC (0 to infinity) in Sprague-Dawley rat at 5 mg/kg, iv measured upto 24 hrs by LC-MS analysis; assay type: ADME, organism-based; conditions: in vivo
[16] = tested on: HCT-116; assay: Antiproliferative activity against human HCT-116 cells expressing PIK3CA with H1047R mutation assessed as reduction in cell viability incubated for 24 to 48 hrs by CCK-8 assay; assay type: functional, cell-based
[17] = target: Cytochrome P450 2C9 (Homo sapiens, UniProt P11712); assay: Inhibition of CYP2C9 in human liver microsomes using tolbutamide as substrate pre-incubated for 30 mins followed by substrate addition and measured after 15 mins in presence of NADPH by LC/MS analysis; assay type: ADME, Microsome
Cytochrome P450 2C9, sequence (P11712 whole entry): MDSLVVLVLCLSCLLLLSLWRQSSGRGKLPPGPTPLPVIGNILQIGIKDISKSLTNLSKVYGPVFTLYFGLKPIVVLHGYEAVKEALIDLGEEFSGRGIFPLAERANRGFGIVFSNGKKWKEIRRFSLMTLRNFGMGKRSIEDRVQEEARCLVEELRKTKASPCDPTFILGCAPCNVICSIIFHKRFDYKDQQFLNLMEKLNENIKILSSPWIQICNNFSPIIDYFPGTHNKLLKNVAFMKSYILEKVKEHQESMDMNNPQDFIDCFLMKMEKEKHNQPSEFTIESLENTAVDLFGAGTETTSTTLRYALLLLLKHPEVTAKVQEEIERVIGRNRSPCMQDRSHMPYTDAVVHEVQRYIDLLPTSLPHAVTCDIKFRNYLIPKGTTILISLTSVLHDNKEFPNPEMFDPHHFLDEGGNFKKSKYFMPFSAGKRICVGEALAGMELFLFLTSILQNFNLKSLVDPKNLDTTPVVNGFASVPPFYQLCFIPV

[18] = Metabolic stability in Sprague-Dawley rat liver microsomes assessed as compound remaining at 5 ug/ml incubated for 1 hr in presence of NADPH by LC-MS/MS analysis; assay type: ADME, Microsome; conditions: at 5 µg/mL, read-out: Stability
[19] = tested on: MCF7; assay: Antiproliferative activity against human MCF7 cells expressing PIK3CA with E545K mutation assessed as reduction in cell viability incubated for 24 to 48 hrs by CCK-8 assay; assay type: functional, cell-based
[20] = Half life in Sprague-Dawley rat at 5 mg/kg, iv measured upto 24 hrs by LC-MS analysis; assay type: ADME, organism-based; conditions: in vivo
[21] = Volume of distribution in Sprague-Dawley rat at 5 mg/kg, iv measured upto 24 hrs by LC-MS analysis; assay type: ADME, organism-based; conditions: in vivo
[22] = Cmax in Sprague-Dawley rat at 5 mg/kg, iv measured upto 24 hrs by LC-MS analysis; assay type: ADME, organism-based; conditions: in vivo
[23] = MRT (0 to t) in Sprague-Dawley rat at 5 mg/kg, iv measured upto 24 hrs by LC-MS analysis; assay type: ADME, organism-based; conditions: in vivo
[24] = target: Cytochrome P450 2C19 (Homo sapiens, UniProt P33261); assay: Inhibition of CYP2C19 in human liver microsomes using omeprazole as substrate pre-incubated for 30 mins followed by substrate addition and measured after 15 mins in presence of NADPH by LC/MS analysis; assay type: ADME, Microsome
[25] = target: Cytochrome P450 1A2 (Homo sapiens, UniProt P05177); assay: Inhibition of CYP1A2 in human liver microsomes using phenacetin as substrate pre-incubated for 30 mins followed by substrate addition and measured after 15 mins in presence of NADPH by LC/MS analysis; assay type: ADME, Microsome
Cytochrome P450 1A2, sequence (P05177 whole entry): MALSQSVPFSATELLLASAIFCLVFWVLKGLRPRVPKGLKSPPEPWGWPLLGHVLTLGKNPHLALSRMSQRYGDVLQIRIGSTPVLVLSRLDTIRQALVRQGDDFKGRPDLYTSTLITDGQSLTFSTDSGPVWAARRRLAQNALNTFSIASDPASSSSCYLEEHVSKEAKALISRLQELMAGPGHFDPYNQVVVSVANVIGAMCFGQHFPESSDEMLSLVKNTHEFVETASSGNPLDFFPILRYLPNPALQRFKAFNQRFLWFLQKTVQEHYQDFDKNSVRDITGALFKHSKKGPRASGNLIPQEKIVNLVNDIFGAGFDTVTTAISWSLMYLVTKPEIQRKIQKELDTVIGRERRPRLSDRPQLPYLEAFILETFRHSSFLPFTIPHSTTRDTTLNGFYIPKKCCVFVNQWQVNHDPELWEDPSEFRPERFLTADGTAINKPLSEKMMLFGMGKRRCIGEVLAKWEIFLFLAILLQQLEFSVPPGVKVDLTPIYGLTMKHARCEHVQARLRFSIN

[26] = Metabolic stability in Sprague-Dawley rat plasma assessed as compound remaining measured upto 3 hrs by LC-MS/MS analysis; assay type: ADME, cell-free
[27] = tested on: HCT-116; assay: Induction of apoptosis in human HCT-116 cells assessed as increased total apoptotic cells at 6 uM incubated for 48 hrs by Annexin V-FITC and propidium iodide staining based flow cytometry analysis (reference value: 4.22 %); assay type: functional
[28] = Cytotoxicity against human NCM460 cells assessed as reduction in cell viability incubated for 24 to 48 hrs by CCK-8 assay; assay type: toxicity, cell-based
[29] = target: T1, Phosphatidylinositol 4,5-bisphosphate 3-kinase catalytic subunit delta isoform (Homo sapiens, UniProt O00329); assay: Inhibition of PI3Kdelta (unknown origin) by ADP-Glo luminescent kinase assay
T1 sequence (O00329 whole entry): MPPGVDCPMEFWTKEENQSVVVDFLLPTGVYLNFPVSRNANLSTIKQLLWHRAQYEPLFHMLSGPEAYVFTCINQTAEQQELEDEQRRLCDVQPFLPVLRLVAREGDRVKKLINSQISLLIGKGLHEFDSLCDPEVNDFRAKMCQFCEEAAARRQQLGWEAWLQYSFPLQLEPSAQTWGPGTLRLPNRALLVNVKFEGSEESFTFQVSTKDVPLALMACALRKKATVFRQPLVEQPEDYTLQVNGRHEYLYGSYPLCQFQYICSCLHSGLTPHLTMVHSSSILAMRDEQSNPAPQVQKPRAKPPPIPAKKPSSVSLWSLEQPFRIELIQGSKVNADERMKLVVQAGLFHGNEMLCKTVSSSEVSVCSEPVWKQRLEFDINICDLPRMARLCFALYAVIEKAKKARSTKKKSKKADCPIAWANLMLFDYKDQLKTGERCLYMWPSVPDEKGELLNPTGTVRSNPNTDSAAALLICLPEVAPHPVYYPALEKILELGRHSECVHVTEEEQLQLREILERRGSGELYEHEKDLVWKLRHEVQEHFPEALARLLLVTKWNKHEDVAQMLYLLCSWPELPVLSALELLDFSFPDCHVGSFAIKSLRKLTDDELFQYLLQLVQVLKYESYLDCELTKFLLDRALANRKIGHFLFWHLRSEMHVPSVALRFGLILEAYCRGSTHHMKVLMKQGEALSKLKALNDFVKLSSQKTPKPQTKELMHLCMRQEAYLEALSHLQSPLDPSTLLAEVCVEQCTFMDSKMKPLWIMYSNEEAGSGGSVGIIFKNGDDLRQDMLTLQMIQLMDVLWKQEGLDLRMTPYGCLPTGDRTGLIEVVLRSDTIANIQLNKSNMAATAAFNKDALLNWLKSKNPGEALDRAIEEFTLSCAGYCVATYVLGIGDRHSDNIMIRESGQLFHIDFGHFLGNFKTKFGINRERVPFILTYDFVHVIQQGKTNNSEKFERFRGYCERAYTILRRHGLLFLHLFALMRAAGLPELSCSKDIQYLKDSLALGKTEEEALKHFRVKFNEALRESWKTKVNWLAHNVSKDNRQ

[30] = target: Phosphatidylinositol 4,5-bisphosphate 3-kinase catalytic subunit alpha isoform (Homo sapiens, UniProt P42336); assay: Inhibition of PI3Kalpha (unknown origin) by ADP-Glo luminescent kinase assay
Phosphatidylinositol 4,5-bisphosphate 3-kinase catalytic subunit alpha isoform, sequence (P42336 whole entry, canonical isoform): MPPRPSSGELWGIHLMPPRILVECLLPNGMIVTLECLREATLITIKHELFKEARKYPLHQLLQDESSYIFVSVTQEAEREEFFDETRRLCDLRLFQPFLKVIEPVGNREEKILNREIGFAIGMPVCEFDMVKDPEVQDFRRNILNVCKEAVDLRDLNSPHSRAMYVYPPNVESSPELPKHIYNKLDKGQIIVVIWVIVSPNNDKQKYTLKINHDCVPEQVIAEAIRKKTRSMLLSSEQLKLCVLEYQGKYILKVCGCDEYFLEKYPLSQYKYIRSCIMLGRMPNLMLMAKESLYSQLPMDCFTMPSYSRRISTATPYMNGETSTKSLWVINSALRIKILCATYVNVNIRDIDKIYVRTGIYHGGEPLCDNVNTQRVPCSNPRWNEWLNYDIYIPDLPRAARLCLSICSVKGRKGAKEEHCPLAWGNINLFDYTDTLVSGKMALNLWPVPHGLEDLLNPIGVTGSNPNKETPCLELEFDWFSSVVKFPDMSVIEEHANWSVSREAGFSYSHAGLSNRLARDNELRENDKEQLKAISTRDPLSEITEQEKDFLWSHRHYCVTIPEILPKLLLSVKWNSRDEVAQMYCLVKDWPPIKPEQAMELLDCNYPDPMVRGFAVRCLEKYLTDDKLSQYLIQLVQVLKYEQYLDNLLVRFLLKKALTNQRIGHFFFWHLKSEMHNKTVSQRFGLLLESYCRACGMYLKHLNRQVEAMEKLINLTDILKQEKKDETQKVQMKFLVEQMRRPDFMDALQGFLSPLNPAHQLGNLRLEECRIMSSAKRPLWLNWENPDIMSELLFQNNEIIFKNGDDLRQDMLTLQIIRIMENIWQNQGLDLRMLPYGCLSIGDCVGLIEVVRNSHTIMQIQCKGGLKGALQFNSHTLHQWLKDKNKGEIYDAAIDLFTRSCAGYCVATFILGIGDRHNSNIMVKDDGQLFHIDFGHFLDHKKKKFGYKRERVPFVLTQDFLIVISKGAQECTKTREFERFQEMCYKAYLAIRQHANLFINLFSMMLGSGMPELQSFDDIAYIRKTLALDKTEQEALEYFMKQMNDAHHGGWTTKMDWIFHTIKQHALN

[31] = Cytotoxicity against human MCF-10A cells assessed as reduction in cell viability incubated for 24 to 48 hrs by CCK-8 assay; assay type: toxicity, cell-based
[32] = target: Cytochrome P450 3A4 (Homo sapiens, UniProt P08684); assay: Inhibition of CYP3A4 in human liver microsomes using midazolam as substrate pre-incubated for 30 mins followed by substrate addition and measured after 15 mins in presence of NADPH by LC/MS analysis; assay type: ADME, Microsome
Cytochrome P450 3A4, sequence (P08684 whole entry): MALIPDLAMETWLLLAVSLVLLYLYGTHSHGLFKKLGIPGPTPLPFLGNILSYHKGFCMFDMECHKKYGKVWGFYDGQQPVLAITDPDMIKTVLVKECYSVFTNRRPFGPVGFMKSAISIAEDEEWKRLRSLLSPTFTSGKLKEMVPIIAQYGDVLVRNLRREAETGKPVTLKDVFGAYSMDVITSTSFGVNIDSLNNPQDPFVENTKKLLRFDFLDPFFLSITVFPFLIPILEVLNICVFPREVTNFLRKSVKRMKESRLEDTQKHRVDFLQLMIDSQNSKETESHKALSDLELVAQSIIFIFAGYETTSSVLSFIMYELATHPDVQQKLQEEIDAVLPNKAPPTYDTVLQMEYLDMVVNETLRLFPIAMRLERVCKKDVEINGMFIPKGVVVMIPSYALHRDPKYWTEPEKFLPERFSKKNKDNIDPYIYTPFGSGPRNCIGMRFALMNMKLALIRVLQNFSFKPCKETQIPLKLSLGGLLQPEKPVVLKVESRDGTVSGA

[33] = tested on: SW-620; assay: Antiproliferative activity against human SW-620 cells assessed as reduction in cell viability incubated for 24 to 48 hrs by CCK-8 assay; assay type: functional, cell-based

- IC50 [1]: 15.8 µM
- clearance [2]: 11.7 mL/min/kg
- IC50 [3]: > 10 µM
- half-life at 5 ug/ml [4]: 4.44 h
- IC50 [6]: 0.64 µM
- MRT inf [7]: 7.9 h
- IC50 [8]: 5.8 µM
- CLH [9]: 5 µL/min/mg
- Stability [10]: Stable
- IC50 [12]: 0.594 µM
- AUC(0-t) at 24 h [13]: 7120 ng·h/mL
- IC50 [14]: 0.402 µM
- AUC(0-inf) [15]: 7520 ng·h/mL
- IC50 [16]: 14.1 µM
- IC50 [17]: > 10 µM
- remaining at 1 h, 5 ug/ml [18]: 86.2%
- IC50 [19]: 3.76 µM
- half-life [20]: 5.9 h
- Vd [21]: 5.6 L/kg
- Cmax [22]: 1680 ng/mL
- MRT last at 24 h [23]: 6.5 h
- IC50 [24]: > 10 µM
- IC50 [25]: > 10 µM
- Stability [26]: Stable
- IC50 [29]: 0.328 µM
- IC50 [30]: 0.011 µM
- IC50 [32]: > 10 µM
- IC50 [33]: 9.99 µM
SMILES: Nc1nc2cc(-c3ccc4ncc(C(=O)N5CCOCC5)n4c3)ccc2o1 [SERABELISIB]
- Activity [5]: Active
- Activity [11]: Dose-Dependent Effect
- Activity [27]: 11.68%
- IC50 [28]: 29 µM
- IC50 [31]: 34.1 µM
